Values of other authors, collected in patent US20110245352A1, “Composition For Permeabilizing The Walls Of Microorganisms Comprising The Combination Of Ethylenediaminetetraacetic Acid (EDTA) And Polyethyleneimine (PEI)” (Millipore Corporation, priority 2007, published 2011).

System: gram-positive bacteria
Conditions: EDTA taken alone; in particular gram-positive bacteria

O=C(O)CN(CCN(CC(=O)O)CC(=O)O)CC(=O)O [EDTA, Ethylenediaminetetraacetic acid]
Permeabilization of microorganism walls for labeling of nucleic acids: does not allow satisfactory permeabilization
